Assay results taken from patent US11266643B2, “Triaryl compounds for treatment of PD-L1 diseases” (CHEMOCENTRYX, INC., priority 2019, dated 2022).

The molecules below were run against human PD-L1 (Homo sapiens (Human), UniProt Q9NZQ7) (assay: Enzyme-Linked Immunosorbent Assay (ELISA), PD-1/PD-L1 binding). Details: plate-coated human PD-L1, biotinylated Human PD-1, absorbance at 450 nm.
Method in brief: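 Plates coated with […] human PD-L1 overnight at 4° C, blocked, then 1:5 serial compound dilutions added with human PD-1 […] 0.31 μg/mL for 1 h at 37° C. Bound PD-1 detected with streptavidin-HRP and TMB (20 min, 37° C); absorbance read at 450 nm after H2SO4 stop.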

Chain of human PD-L1 (Q9NZQ7 19-239): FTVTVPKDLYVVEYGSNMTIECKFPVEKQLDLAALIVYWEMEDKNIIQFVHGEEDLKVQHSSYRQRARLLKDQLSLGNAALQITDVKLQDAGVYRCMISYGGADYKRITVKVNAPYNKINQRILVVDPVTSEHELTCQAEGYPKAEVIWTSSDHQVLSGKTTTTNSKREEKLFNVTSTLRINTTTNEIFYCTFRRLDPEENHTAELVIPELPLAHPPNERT

Row | SMILES | IC50
1 | COc1cc(-c2cccc(-c3cccc(NC(=O)c4cn(C)c(=O)n(C)c4=O)c3Cl)c2F)cc(F)c1CNC[C@@H]1CCC(=O)N1 [Example 2.079] | < 10 nM
2 | COc1cc(-c2cccc(-c3cccc(NC(=O)c4cn(C)c(=O)n(C)c4=O)c3Cl)c2Cl)cc(F)c1CN[C@H]1CNC(=O)C1 [Example 2.081] | < 10 nM
3 | COc1cc(-c2cccc(-c3cccc(NC(=O)c4cn(C)c(=O)n(C)c4=O)c3Cl)c2Cl)cc(F)c1CN[C@H]1CCOC[C@@H]1O [Example 2.082] | < 10 nM
4 | COc1cc(-c2cccc(-c3cccc(NC(=O)c4cn(C)c(=O)n(C)c4=O)c3C)c2Cl)cc(F)c1CNC(C)(C)C(N)=O [Example 2.085] | 10 to 1000 nM
5 | COc1cc(-c2cccc(-c3cccc(NC(=O)c4cn(C)c(=O)n(C)c4=O)c3Cl)c2F)cc(F)c1CN[C@@H]1CCOC[C@@H]1O [Example 2.091] | < 10 nM
6 | COc1cc(-c2cccc(-c3cccc(NC(=O)c4cn(C)c(=O)n(C)c4=O)c3Cl)c2C)cc(F)c1CN(C)C[C@@H]1CCC(=O)N1 [Example 2.100] | < 10 nM
7 | COc1cc(-c2cccc(-c3cccc(NC(=O)c4cn(C)c(=O)n(C)c4=O)c3Cl)c2Cl)cc(F)c1CN[C@@H]1CCC(=O)NC1 [Example 2.107] | < 10 nM
8 | COc1cc(-c2cccc(-c3cccc(NC(=O)c4cn(C)c(=O)n(C)c4=O)c3Cl)c2Cl)cc(F)c1CNCC(C)(C)C(N)=O [Example 2.108] | < 10 nM
9 | COc1cc(-c2cccc(-c3cccc(Nc4nccc5nccnc45)c3Cl)c2Cl)cc(F)c1CN1CC(C)(C(=O)O)C1 [Example 2.109] | < 10 nM
10 | COc1cc(-c2cccc(-c3cccc(Nc4nccc5nccnc45)c3Cl)c2Cl)cc(F)c1CN[C@@H]1COC[C@@H]1O [Example 2.110] | < 10 nM
11 | COc1cc(-c2cccc(-c3cccc(Nc4nccc5nccnc45)c3C)c2Cl)cc(F)c1CNCC1(O)CC1 [Example 2.111] | < 10 nM
12 | COc1cc(-c2cccc(-c3cccc(Nc4nccc5nccnc45)c3C)c2Cl)cc(F)c1CNCC(C)(C)O [Example 2.112] | < 10 nM
13 | COc1cc(-c2cccc(-c3cccc(Nc4nccc5nccnc45)c3C)c2Cl)cc(F)c1CNCC(C)(C)C(N)=O [Example 2.113] | < 10 nM
14 | COc1cc(-c2cccc(-c3cccc(Nc4nccc5nccnc45)c3C)c2Cl)cc(F)c1CN[C@H]1CCOC[C@H]1O [Example 2.114] | < 10 nM
15 | COc1cc(-c2cccc(-c3cccc(Nc4nccc5nccnc45)c3C)c2Cl)cc(F)c1CN[C@@H]1COC[C@@H]1O [Example 2.115] | < 10 nM
16 | COc1cc(-c2cccc(-c3cccc(Nc4nccc5nccnc45)c3C)c2Cl)cc(F)c1CN[C@H]1CCC(=O)NC1 [Example 2.116] | < 10 nM

Second part, the molecule after the results:

Row | IC50 | SMILES
17 | < 10 nM | COc1cc(-c2cccc(-c3cccc(NC(=O)c4cn(C)c(=O)n(C)c4=O)c3Cl)c2C)cc(F)c1CN[C@@H]1CCOC[C@H]1O [Example 2.078]
18 | < 10 nM | COc1cc(-c2cccc(-c3cccc(NC(=O)c4cn(C)c(=O)n(C)c4=O)c3C)c2Cl)cc(F)c1CN[C@H]1CCCOC1 [Example 2.080]
19 | < 10 nM | COc1cc(-c2cccc(-c3cccc(NC(=O)c4cn(C)c(=O)n(C)c4=O)c3C)c2Cl)cc(F)c1CNC1CCOCC1 [Example 2.083]
20 | < 10 nM | COc1cc(-c2cccc(-c3cccc(NC(=O)c4cn(C)c(=O)n(C)c4=O)c3C)c2Cl)cc(F)c1CN[C@H]1CNC(=O)C1 [Example 2.084]
21 | < 10 nM | COc1cc(-c2cccc(-c3cccc(NC(=O)c4cn(C)c(=O)n(C)c4=O)c3C)c2Cl)cc(F)c1CN[C@@H]1COCC[C@H]1O [Example 2.086]
22 | < 10 nM | COc1cc(-c2cccc(-c3cccc(NC(=O)c4cn(C)c(=O)n(C)c4=O)c3C)c2Cl)cc(F)c1CN[C@H]1CCOC1 [Example 2.087]
23 | < 10 nM | COc1cc(-c2cccc(-c3cccc(NC(=O)c4cn(C)c(=O)n(C)c4=O)c3C)c2Cl)cc(F)c1CN[C@H]1COCC[C@@H]1O [Example 2.088]
24 | < 10 nM | COc1cc(-c2cccc(-c3cccc(NC(=O)c4cn(C)c(=O)n(C)c4=O)c3C)c2Cl)cc(F)c1CN[C@H]1CCOC[C@@H]1O [Example 2.089]
25 | < 10 nM | COc1cc(-c2cccc(-c3cccc(NC(=O)c4cn(C)c(=O)n(C)c4=O)c3C)c2Cl)cc(F)c1CN[C@@H]1COC[C@H]1O [Example 2.090]
26 | < 10 nM | COc1cc(-c2cccc(-c3cccc(NC(=O)c4cn(C)c(=O)n(C)c4=O)c3C)c2Cl)cc(F)c1CN[C@H]1COC[C@@H]1O [Example 2.092]
27 | < 10 nM | COc1cc(-c2cccc(-c3cccc(NC(=O)c4cn(C)c(=O)n(C)c4=O)c3C)c2Cl)cc(F)c1CN[C@H]1COC[C@H]1O [Example 2.093]
28 | < 10 nM | COc1cc(-c2cccc(-c3cccc(NC(=O)c4cn(C)c(=O)n(C)c4=O)c3C)c2Cl)cc(F)c1CN[C@@H]1COC[C@@H]1O [Example 2.094]
29 | < 10 nM | COc1cc(-c2cccc(-c3cccc(NC(=O)c4cn(C)c(=O)n(C)c4=O)c3C)c2F)cc(F)c1CN[C@H]1CCOC[C@@H]1O [Example 2.095]
30 | < 10 nM | COc1cc(-c2cccc(-c3cccc(NC(=O)c4cn(C)c(=O)n(C)c4=O)c3C)c2C)cc(F)c1CN[C@H]1CCOC[C@@H]1O [Example 2.096]
31 | < 10 nM | COc1cc(-c2cccc(-c3cccc(NC(=O)c4cn(C)c(=O)n(C)c4=O)c3C)c2C)cc(F)c1CN[C@H]1CCOC[C@H]1O [Example 2.097]
32 | < 10 nM | COc1cc(-c2cccc(-c3cccc(NC(=O)c4cn(C)c(=O)n(C)c4=O)c3C)c2Cl)cc(F)c1CN[C@@H]1CCOC1 [Example 2.098]
33 | < 10 nM | COc1cc(-c2cccc(-c3cccc(NC(=O)c4cn(C)c(=O)n(C)c4=O)c3C)c2F)cc(F)c1CN[C@@H]1CCOC[C@H]1O [Example 2.099]
34 | < 10 nM | COc1cc(-c2cccc(-c3cccc(NC(=O)c4cn(C)c(=O)n(C)c4=O)c3C)c2Cl)cc(F)c1CN[C@@H]1CCC(=O)NC1 [Example 2.101]
35 | < 10 nM | COc1cc(-c2cccc(-c3cccc(NC(=O)c4cn(C)c(=O)n(C)c4=O)c3C)c2Cl)cc(F)c1CN[C@@H]1CCOC[C@H]1O [Example 2.102]
36 | < 10 nM | COc1cc(-c2cccc(-c3cccc(NC(=O)c4cn(C)c(=O)n(C)c4=O)c3Cl)c2C)cc(F)c1CN[C@H]1CCOC[C@H]1O [Example 2.103]
37 | < 10 nM | COc1cc(-c2cccc(-c3cccc(NC(=O)c4cn(C)c(=O)n(C)c4=O)c3C)c2Cl)cc(F)c1CN[C@H]1CCOC[C@H]1O [Example 2.104]
38 | < 10 nM | COc1cc(-c2cccc(-c3cccc(NC(=O)c4cn(C)c(=O)n(C)c4=O)c3C)c2F)cc(F)c1CN[C@H]1CCOC[C@H]1O [Example 2.105]
39 | < 10 nM | COc1cc(-c2cccc(-c3cccc(NC(=O)c4cn(C)c(=O)n(C)c4=O)c3F)c2Cl)cc(F)c1CN[C@@H]1CCOC[C@@H]1O [Example 2.106]
